Measurements: PubChem BioAssay AID330 (DTP/NCI, 2004)
“And” between values parts separate entries of the source, which are not always exact repeats. Equal entries are not always repeated. Toxic doses and inconclusive results are not listed.

System: P388 leukemia ip, CD2F1 mice, survival T/C
Assay: NCI In Vivo Anticancer Drug Screen. Data for tumor model P388 Leukemia (intraperitoneal) in CD2F1 (CDF1) mice
Details: endpoint: median survival time, higher = longer survival
Procedure, shortened: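 Mice carrying the transplanted tumor received test compound or vehicle. Survival was recorded in each group, and the value is the treated-group measurement divided by that of the vehicle-treated control group.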

[1] = dose: 12.5 mg/kg/injection, schedule: Q04DX003 (ip), vehicle: saline
[2] = dose: 25.0 mg/kg/injection, schedule: Q04DX003 (ip), vehicle: saline
[3] = dose: 200.0 mg/kg/injection, schedule: Q01DX009 (ip), vehicle: saline with Tween-80
[4] = dose: 50.0 mg/kg/injection, schedule: Q01DX005 (ip), vehicle: saline with Tween-80
[5] = dose: 100.0 mg/kg/injection, schedule: Q01DX005 (ip), vehicle: saline with Tween-80
[6] = dose: 200.0 mg/kg/injection, schedule: Q01DX005 (ip), vehicle: saline with Tween-80
[7] = dose: 50.0 mg/kg/injection, schedule: Q01DX009 (ip), vehicle: saline with Tween-80

Structure (SMILES): Cc1ccccc1-[n+]1noc(N)n1
- T/C (dose: 3.13 mg/kg/injection, schedule: Q01DX009 (ip), vehicle: water): 101 % of control
- T/C (dose: 6.25 mg/kg/injection, schedule: Q01DX009 (ip), vehicle: water): 113 % of control
- T/C (dose: 12.5 mg/kg/injection, schedule: Q01DX009 (ip), vehicle: water): 120 % of control
- T/C (dose: 14.7 mg/kg/injection, schedule: Q01DX009 (ip), vehicle: water): 106 % of control

Structure (SMILES): CC(C)CC(NC(=O)OCC[P+](c1ccccc1)(c1ccccc1)c1ccccc1)C(=O)O (configuration not stated)
- T/C (dose: 6.25 mg/kg/injection, schedule: Q04DX003 (ip), vehicle: saline): 102 % of control
- T/C [1]: 105 % of control
- T/C [2]: 112 % of control
- T/C (dose: 50.0 mg/kg/injection, schedule: Q04DX003 (ip), vehicle: saline): 121 % of control

Structure (SMILES): C=CCn1c(=O)c2[nH]c(Cl)nc2n(CC)c1=O
- T/C (dose: 16.0 mg/kg/injection, schedule: Q01DX009 (ip), vehicle: Klucel (hydroxypropylcellulose) (HPC)): 100 % of control and 105 % of control
- T/C (dose: 32.0 mg/kg/injection, schedule: Q01DX009 (ip), vehicle: Klucel (hydroxypropylcellulose) (HPC)): 106 % of control and 94 % of control
- T/C (dose: 64.0 mg/kg/injection, schedule: Q01DX009 (ip), vehicle: Klucel (hydroxypropylcellulose) (HPC)): 102 % of control and 106 % of control

Structure (SMILES): Cc1nc(N)nc(N)c1CCCc1ccccc1
- T/C (dose: 3.12 mg/kg/injection, schedule: Q01DX001 (ip), vehicle: Klucel (hydroxypropylcellulose) (HPC)): 107 % of control
- T/C (dose: 6.25 mg/kg/injection, schedule: Q01DX001 (ip), vehicle: Klucel (hydroxypropylcellulose) (HPC)): 101 % of control
- T/C (dose: 12.5 mg/kg/injection, schedule: Q01DX001 (ip), vehicle: Klucel (hydroxypropylcellulose) (HPC)): 105 % of control
- T/C (dose: 12.5 mg/kg/injection, schedule: Q01DX001 (ip), vehicle: saline): 100 % of control

Structure (SMILES): C[N+](C)(C)CCBr
- T/C (dose: 3.12 mg/kg/injection, schedule: Q01DX009 (ip), vehicle: saline): 100 % of control
- T/C (dose: 6.25 mg/kg/injection, schedule: Q01DX009 (ip), vehicle: saline): 104 % of control
- T/C (dose: 12.5 mg/kg/injection, schedule: Q01DX009 (ip), vehicle: saline): 101 % of control
- T/C [1]: 105 % of control
- T/C (dose: 25.0 mg/kg/injection, schedule: Q01DX009 (ip), vehicle: saline): 101 % of control
- T/C [2]: 100 % of control

Structure (SMILES): ClCCN(CCCl)CCCN1c2ccccc2Sc2ccccc21
- T/C (dose: 3.12 mg/kg/injection, schedule: Q01DX009 (ip), vehicle: saline with Tween-80): 122 % of control

Structure (SMILES): O=C(NC(Cc1ccccc1)C(=O)CBr)OCc1ccccc1 (configuration not stated)
- T/C (dose: 12.5 mg/kg/injection, schedule: Q01DX001 (ip), vehicle: saline with Tween-80): 100 % of control
- T/C (dose: 25.0 mg/kg/injection, schedule: Q01DX001 (ip), vehicle: saline with Tween-80): 104 % of control
- T/C (dose: 50.0 mg/kg/injection, schedule: Q01DX001 (ip), vehicle: saline with Tween-80): 109 % of control

Structure (SMILES): N#Cc1ccccc1N1CCCC1=O
- T/C (dose: 100.0 mg/kg/injection, schedule: Q04DX002 (ip), vehicle: saline): 90 % of control
- T/C (dose: 200.0 mg/kg/injection, schedule: Q04DX002 (ip), vehicle: saline): 102 % of control
- T/C (dose: 400.0 mg/kg/injection, schedule: Q04DX002 (ip), vehicle: saline): 97 % of control

Structure (SMILES): CC[C@@]1(O)C(=O)OCc2c1cc1n(c2=O)Cc2cc3c(OC)cccc3nc2-1
- T/C (dose: 0.39 mg/kg/injection, schedule: Q04DX003 (ip), vehicle: other): 115 % of control
- T/C (dose: 1.0 mg/kg/injection, schedule: Q01DX009 (ip), vehicle: saline with Tween-80): 217 % of control
- T/C (dose: 1.5 mg/kg/injection, schedule: Q01DX009 (ip), vehicle: saline with Tween-80): 181 % of control and 192 % of control
- T/C (dose: 2.25 mg/kg/injection, schedule: Q01DX009 (ip), vehicle: saline with Tween-80): 100 % of control
- T/C (dose: 3.0 mg/kg/injection, schedule: Q01DX009 (ip), vehicle: saline with Tween-80): 103 % of control
- T/C (dose: 3.13 mg/kg/injection, schedule: Q04DX003 (ip), vehicle: other): 191 % of control
- T/C (dose: 6.25 mg/kg/injection, schedule: Q04DX003 (ip), vehicle: other): 90 % of control

Structure (SMILES): CN(C(=O)OCc1ccccc1)c1ccc(C(=O)NC(CCC(=O)OCc2ccccc2)C(=O)OCc2ccccc2)cc1 (configuration not stated)
- T/C [3]: 94 % of control

Structure (SMILES): Cc1ccc2c(c1)C(=O)c1c(ccc3ccccc13)C2=O
- T/C [4]: 95 % of control
- T/C [5]: 100 % of control
- T/C [6]: 104 % of control

Structure (SMILES): Cc1c2cnccc2c(C)c2c1c1c(C)c3cnccc3c(C)c1n2C
- T/C (dose: 6.25 mg/kg/injection, schedule: Q04DX002 (ip), vehicle: distilled water + Tween-80): 94 % of control
- T/C (dose: 12.5 mg/kg/injection, schedule: Q04DX002 (ip), vehicle: distilled water + Tween-80): 97 % of control
- T/C (dose: 25.0 mg/kg/injection, schedule: Q04DX002 (ip), vehicle: distilled water + Tween-80): 102 % of control
- T/C (dose: 50.0 mg/kg/injection, schedule: Q04DX002 (ip), vehicle: distilled water + Tween-80): 108 % of control
- T/C (dose: 100.0 mg/kg/injection, schedule: Q04DX002 (ip), vehicle: distilled water + Tween-80): 94 % of control

Structure (SMILES): CN(C)Cc1cn(C)c2ccccc12
- T/C (dose: 12.5 mg/kg/injection, schedule: Q01DX005 (ip), vehicle: saline): 99 % of control
- T/C (dose: 25.0 mg/kg/injection, schedule: Q01DX005 (ip), vehicle: saline): 93 % of control
- T/C (dose: 50.0 mg/kg/injection, schedule: Q01DX005 (ip), vehicle: saline): 98 % of control and 95 % of control

Structure (SMILES): CNC(C)C(O)c1ccccc1 (configuration not stated)
- T/C (dose: 50.0 mg/kg/injection, schedule: Q04DX003 (ip), vehicle: saline with Tween-80): 95 % of control
- T/C (dose: 100.0 mg/kg/injection, schedule: Q04DX003 (ip), vehicle: saline with Tween-80): 95 % of control
- T/C (dose: 200.0 mg/kg/injection, schedule: Q04DX003 (ip), vehicle: saline with Tween-80): 100 % of control

Structure (SMILES): O=C(O)c1cc(C(=O)CCCCC(=O)c2cc(C(=O)O)c(O)c3ccccc23)c2ccccc2c1O
- T/C [7]: 90 % of control
- T/C (dose: 100.0 mg/kg/injection, schedule: Q01DX009 (ip), vehicle: saline with Tween-80): 90 % of control
- T/C [3]: 92 % of control

Structure (SMILES): O=S1(=O)CCC(c2ccccc2)C1 (configuration not stated)
- T/C (dose: 12.5 mg/kg/injection, schedule: Q01DX009 (ip), vehicle: saline with Tween-80): 100 % of control
- T/C (dose: 25.0 mg/kg/injection, schedule: Q01DX009 (ip), vehicle: saline with Tween-80): 105 % of control
- T/C [7]: 97 % of control

Structure (SMILES): COC(=O)[CH2][Sn]([CH2]C(=O)OC)([c]1ccccc1)[c]1ccccc1
- T/C (dose: 0.39 mg/kg/injection, schedule: Q01DX005 (ip), vehicle: Klucel (hydroxypropylcellulose) (HPC)): 120 % of control
- T/C (dose: 0.79 mg/kg/injection, schedule: Q01DX005 (ip), vehicle: Klucel (hydroxypropylcellulose) (HPC)): 112 % of control

Structure (SMILES): COc1ccc(C2[C@@H]3CCc4ccccc4C3=NN2C(C)=O)cc1 (some centres not stated)
- T/C [4]: 93 % of control
- T/C [5]: 91 % of control
- T/C [6]: 87 % of control

Structure (SMILES): Cc1ccc(S(=O)(=O)N2CC3CNC(=O)C(C3)C2)cc1 (configuration not stated)
- T/C (dose: 100.0 mg/kg/injection, schedule: Q01DX001 (ip), vehicle: Klucel (hydroxypropylcellulose) (HPC)): 104 % of control
- T/C (dose: 200.0 mg/kg/injection, schedule: Q01DX001 (ip), vehicle: Klucel (hydroxypropylcellulose) (HPC)): 101 % of control
- T/C (dose: 400.0 mg/kg/injection, schedule: Q01DX001 (ip), vehicle: Klucel (hydroxypropylcellulose) (HPC)): 107 % of control

Structure (SMILES): CN(C)CCCNc1nc2ccccc2c2ccnn12
- T/C (dose: 5.5 mg/kg/injection, schedule: Q01DX009 (ip), vehicle: saline): 109 % of control
- T/C (dose: 11.0 mg/kg/injection, schedule: Q01DX009 (ip), vehicle: saline): 100 % of control
- T/C (dose: 22.0 mg/kg/injection, schedule: Q01DX009 (ip), vehicle: saline): 100 % of control

Structure (SMILES): NCCSSc1ccccc1C(=O)O
- T/C (dose: 50.0 mg/kg/injection, schedule: Q01DX005 (ip), vehicle: Klucel (hydroxypropylcellulose) (HPC)): 102 % of control
- T/C (dose: 100.0 mg/kg/injection, schedule: Q01DX005 (ip), vehicle: Klucel (hydroxypropylcellulose) (HPC)): 105 % of control
- T/C (dose: 200.0 mg/kg/injection, schedule: Q01DX005 (ip), vehicle: Klucel (hydroxypropylcellulose) (HPC)): 112 % of control

Structure (SMILES): O=C(Nc1cccc(C2=NCCCN2)c1)Nc1ccc(NC(=O)Nc2cccc(C3=NCCCN3)c2)c(Cl)c1
- T/C (dose: 0.6 mg/kg/injection, schedule: Q04DX003 (ip), vehicle: saline): 109 % of control
- T/C (dose: 1.25 mg/kg/injection, schedule: Q04DX003 (ip), vehicle: saline): 109 % of control
- T/C (dose: 2.5 mg/kg/injection, schedule: Q04DX003 (ip), vehicle: saline): 109 % of control
- T/C (dose: 10.0 mg/kg/injection, schedule: Q04DX003 (ip), vehicle: saline with Tween-80): 170 % of control
- T/C (dose: 20.0 mg/kg/injection, schedule: Q04DX003 (ip), vehicle: saline): 164 % of control
- T/C (dose: 26.4 mg/kg/injection, schedule: Q04DX003 (ip), vehicle: saline with Tween-80): 183 % of control
- T/C (dose: 40.0 mg/kg/injection, schedule: Q04DX003 (ip), vehicle: saline): 204 % of control
